Starred links: 1 amine or outer side, 2 acyl side, 3 side chain; linkers in the order of their positions; H or OH if unused. Positions of bridges follow the written chain, without caps; N, C: chain ends. Residues, ends and D or L forms follow the SMILES beside them. TBMB = c1c(C[*:1])cc(C[*:3])cc1C[*:2]; pXylylene = c1cc(C[*:2])ccc1C[*:1]

The results in this text go back to article PMC7894522, “Structure Based Design of Bicyclic Peptide Inhibitors of RbAp48” (Angewandte Chemie (International Ed. in English), 2020).

The subject of one data set is U2OS cells. Description: Morphological cell painting assay. The class given is cell-based. To be noted: Supplemental table 6; cell painting profile similarity to compound 49, U2OS cells. The text has this: Encouraged by the promising results from the pulldown experiment, and in order to get insight into bioactivity and possible mode of action, we analyzed peptide 33 in a morphological cell painting assay. The cell painting assay is a target agnostic assay which determines a cells morphological profile after treatment with a compound of interest and compares it to the profiles of a set of reference compounds. ^[22] By identifying reference compounds with a similar profile a hypothesis of the compounds mode of action can be generated based on their annotated targets. ^[23] U2OS cells were treated with our compound and 579 parameters were analyzed. […] We therefore synthesized a variant modified with an N‐terminal TAT sequence to enhance its permeability (compound 49, see Table 1 and Supplemental Figure 4). ^[24] […] Applying compound 49 to the cell painting assay led to an induction of 5.9 % and the corresponding profile was compared to the set of 3000 reference compounds. […] To validate this hypothesis, we exposed U2OS cells to compound 49 and evaluated the levels of p53 by Western blot. […] The exact mechanism by which the compounds elevate levels of p53 requires further investigation. However, it has previously been shown that the NuRD complex, of which RbAp48 is a core component, is able to deacetylate p53 and thereby modulate its stability. ^[26] The effect is mediated by the MTA family of proteins from which the compounds described here are derived. […]
The described assay follows closely the method described by Bray et al. Initially, 5 µl U2OS medium were added to each well of a 384 -well plate (PerkinElmer CellCarrier -384 Ultra). Subsequently, U2OS cell were seeded with a density of 1600 cells per well in 20 µl medium. The plate was incubated for 10 min at the ambient temperatu re, followed by an a dditional 4 h incubation (37 °C, 5 % CO2). Compound treatment was performed with the Echo 520 acoustic dispenser (Labcyte) at final concentrations of 10 µM, 3 µM or 1 µM. Incubation with compound was performed for 20 h (37 °C, 5 % CO2). Subsequently, mitoc hondria were stained with Mito Tracker Deep Red (Thermo Fisher Scientific, Cat. No. M22426). The Mito Tracker Deep Red stock solution (1 mM) was diluted to a final concentration of 100 nM in prewarmed medium. The medium was removed fr om the plate leaving 1 0 µl residual volume and 25 µl of the Mito Tracker solution were added to each well. 22 The plate was incubated for 30 min in darkness (37 °C, 5 % CO2). To fix the cells 7 µl of 18.5 % formaldehyde in PBS were added, resulting in a fi nal formaldehyde conce ntration of 3.7 %. Subsequently, the plate was incubated for another 20 min in darkness (RT) and washed three times with 70 µl of PBS. (Biotek Washer Elx405). Cells were permeabilized by addition of 25 µl 0.1 % Triton X -100 to each well, followed by 15 min incubation (RT) in darkness. The cells were washed three times with PBS leaving a final volume of 10 µl. To each well 25 µl of a staining solution were added, which contains 1 % BSA, 5 µl/mL Phalloidin (Thermo Fisher Scientific, A123 81), 25 µg/ml Concanav alin A (Thermo Fisher Scientific, Cat. […]
conjugate (Thermo Fisher Scientific, Cat. No. W11262) and […] SYTO 14 solution (Thermo Fisher Scientific, Cat. No. S7576). The plate is incubated for 30 min (RT) in darkness and washed three times with 70 µl PBS. After the final washing step the PBS was not aspirated. The plates were sealed and centrifuged for 1 min at 500 rpm.
The plates were prepare d in triplicates with shifted layouts to reduce plate effects and imaged using a Micro XL High-Content Screening System (Molecular Devices) in 5 channels (DAPI: Ex350 -400/ Em410- […]
The generated images were processed with the CellProfiler package (https://cellprofiler.org/, version 3.0.0) on a computing cluster of the Max Planck Society to extract 1716 cell features (parameters) per microscope site. The data was then further aggregated as medians per well (9 sites -> 1 well), then […]

The target in data set [1] is T1, RbAp48 (Homo sapiens, UniProt Q09028). Description: Competitive fluorescence polarization (FP) assay using complex of peptide 1 and RbAp48. It counts as binding. Further details: Full length RbAp48 was cloned; His tag followed by 3C cleavage site (N, cleaved yes); made in house; host or cells: Sf9 insect cells. To be noted: for IC50: Table 1, competitive FP, tracer peptide 1 1 nM, RbAp48 15 nM, 20 mM Tris-HCl, 150 mM NaCl, 0.01% Tween-20, pH 7.5, 30 min room temperature, lower limit set by 15 nM protein, read-out: IC50. In outline: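 Sf9-expressed full-length RbAp48 (tag cleaved), 15 nM, displaced from 1 nM fluorescent peptide tracer in 20 mM Tris-HCl pH 7.5, 150 mM NaCl, 0.01% Tween-20. Read by FP (ex 485/em 535 nm) after 30 min at room temperature.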

The target in data set [2] is T1, RbAp48. Description: Isothermal titration calorimetry (direct and competitive). It counts as binding. Further details: Full length RbAp48 was cloned; His tag followed by 3C cleavage site (N, cleaved yes); made in house; host or cells: Sf9 insect cells. On the procedure:
The weak ligand interferes with binding of the strong ligand allowing the use of higher concentrations and therefore stronger signal. The actual affinity and thermodynamic parameters can then be calculated from the measured values.[ ^20 , ^21 ] The long linear peptide 2, monocyclic peptide 8, and bicyclic peptide 33 were analysed using this method and the results are reported in Table 2 (See Figure 4 A and Supplemental Figure 13–16). […] An effect which could not clearly be observed by the FP assay as it's lower limits were reached.
Protein expression and purification
RbAp48 was expressed and purified by the Dortmund Protein Facility. Full length RbAp48 was cloned into a pOPIN vector ligating it to an N-terminal His tag followed by a 3C cleavage site. The protein was expressed from Sf9 cells for 48 h. Cells were harvested and lysed and the protein was purified by loading onto a HisTrap FF crude 5 ml column followed by on-column cleavage using Precission protease. The cleaved protein was then further purified using a HiLoad 26/60 Superdex 200 column.
(§1) Fluorescence polarization assay […]
Isothermal Titration Calorimetry
Isothermal titration calorimetry measurements w ere performed using a Microcal ITC-200 device. The buffer for all measurements consisted of 20 mM Tris, 150 mM NaCl, pH 7.5 and all measurements were performed at 25°C in duplicate except for 8. RbAp48 was dialyzed overnight using a 10 kDa MWCO Slide-A-lizer dialysis membrane and peptide samples were dissolved in the dialysis buffer. Direct measurements of 40 were perfomed by titrating the peptide ( 800 µM) into the cell containing RbAp48 (40 µM) using 2 µl injection after an initial injection of 0.5 µl. […]
by competitive ITC where the protein is premixed with a weak ligand ( 40).[1] Competitive measurements were performed by titrating 2, 8 or 33 (300 µM) into the cell containing RbAp48 (30 µM) and 40 (416 µM). Other conditions were the same as for the direct measurement described above.
Ki was calculated according using the following formula: […]

A short description of data set [3]: Peptide stability in MDA-MB-231 whole cell lysate. It counts as in vitro ADME. The following applies: human, 37°C, HPLC, duplicate; for half-life at 600 µM: MDA-MB-231 whole cell lysate (freeze-thaw), 5 mg/ml protein in PBS, peptide 600 µM, read-out: t 1/2 (half-life); for remaining at 5 min, 600 µM: T 5 min; for remaining at 5 min, 600 µM / remaining at 0.25 h, 600 µM / remaining at 1 h, 600 µM: MDA-MB-231 whole cell lysate 5 mg/ml protein, read-out: % left; for remaining at 0.25 h, 600 µM: T 15 min; for remaining at 1 h, 600 µM: T 60 min. The method, then:
To investigate whether the cyclization strategy influences the stability of the peptides we incubated 3, 8 and 33 in MDA‐MB‐231 cell lysate. […]
as §1
Isothermal Titration Calorimetry […]
Peptide stability was tested in whole cell lysate prepared from MDA-MB-231 cells using the freeze-thaw method. Peptides were dissolved in lysate (normalized to 5mg/ml protein using PBS) at 600 µM and incubated at 37°C. Samples were taken at different time points and mixed with an equal amount of MeOH containing 0.05 mg/ml ethylparaben as an i nternal standard. The samples were mixed and kept on ice for 15 minutes before centrifugation at 14000 rpm at 4 °C for 10 min. The supernatant was carefully removed and analyzed by HPLC. Peptide peaks were integrated and surface areas compared […]
Measurements were performed in duplicate.

Where [4] appears, read: competitive ITC with weak ligand 40.

T1 sequence (Q09028 whole entry): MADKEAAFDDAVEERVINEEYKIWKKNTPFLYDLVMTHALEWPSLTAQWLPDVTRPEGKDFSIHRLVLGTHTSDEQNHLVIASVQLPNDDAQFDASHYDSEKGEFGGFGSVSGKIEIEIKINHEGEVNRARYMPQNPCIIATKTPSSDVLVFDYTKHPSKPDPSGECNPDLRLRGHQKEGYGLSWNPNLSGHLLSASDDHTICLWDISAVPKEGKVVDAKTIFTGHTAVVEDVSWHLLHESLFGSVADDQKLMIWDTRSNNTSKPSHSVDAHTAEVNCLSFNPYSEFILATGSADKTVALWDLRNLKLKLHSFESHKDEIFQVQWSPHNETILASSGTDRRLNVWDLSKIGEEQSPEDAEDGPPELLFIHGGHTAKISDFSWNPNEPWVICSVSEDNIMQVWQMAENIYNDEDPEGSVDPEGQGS

Take `COc1cc2nc(N3CCCN(C)CC3)nc(NC3CCN(Cc4ccccc4)CC3)c2cc1OC` [BIX01294]: the “Biosimilarity (%)” value in the data set with U2OS cells is reported as 64.9%.

As for `CC(=O)N1CCN(c2ccc(OCC3COC(Cn4ccnc4)(c4ccc(Cl)cc4Cl)O3)cc2)CC1` (centres unmarked) [Ketoconazole], the “Biosimilarity (%)” value in the data set with U2OS cells is given as 61.9%.

In the case of `CC(C)(C)C[C@@H]1N[C@@H](C(=O)N[C@H]2CC[C@H](O)CC2)[C@H](c2cccc(Cl)c2F)[C@]12C(=O)Nc1cc(Cl)ccc12` [MI-773], the “Biosimilarity (%)” value in the data set on U2OS cells is reported as 73.0%.

As to `CC[C@H](C)[C@H](NC(=O)[C@@H]1CCCN1C(=O)[C@H](CCCCN)NC(=O)[C@H](Cc1ccc(O)cc1)NC(=O)[C@@H]1CCCN1C(=O)[C@H](CCCNC(=N)N)NC(=O)[C@H](CCCNC(=N)N)NC(=O)[C@H](C)NC(=O)[C@H](C)NC(=O)[C@H](CCCNC(=N)N)NC(=O)[C@H](CCCCN)NC(=O)[C@@H](NC(=O)[C@H](CCC(=O)O)NC(=O)[C@H](CO)NC(=O)[C@H](CO)NC(=O)[C@H](CO)NC(=O)[C@H](CC(C)C)NC(=O)[C@H](CC(C)C)NC(=O)[C@H](CCCCN)NC(C)=O)[C@@H](C)O)C(=O)N[C@@H](C)C(=O)N[C@@H](CC(C)C)C(=O)N[C@@H](CCCNC(=N)N)C(=O)N[C@@H](CCC(N)=O)C(=O)N[C@@H](CO)C(=O)N[C@@H](CCC(N)=O)C(=O)N[C@@H](C)C(N)=O` [Peptide 2] (Ac-KLLSSSETKRAARRPYKPIALRQSQA-NH2), the IC50 – broadly, the concentration needed to halve the response being measured – at RbAp48 [1] amounted to 13.4 ± 3 nM. Also, on RbAp48 [2] (setting [4]), the Kd – broadly, the free concentration of one partner at which half of the binding sites on the other are occupied at equilibrium, for simple one-to-one binding – worked out at 5.18 nM.

As for `CC[C@H](C)[C@H](NC(=O)[C@@H]1CCCN1C(=O)[C@H](CCCCN)NC(=O)[C@H](Cc1ccc(O)cc1)NC(=O)[C@@H]1CCCN1C(=O)[C@H](CCCNC(=N)N)NC(=O)[C@H](CCCNC(=N)N)NC(=O)[C@H](C)NC(=O)[C@H](C)NC(=O)[C@H](CCCNC(=N)N)NC(=O)[C@H](CCCCN)NC(=O)[C@@H](NC(=O)[C@H](CCC(=O)O)NC(C)=O)[C@@H](C)O)C(=O)N[C@@H](C)C(N)=O` [Peptide 3] (Ac-ETKRAARRPYKPIA-NH2), in data set [3], the half-life at 600 µM worked out at 16 min; the remaining at 5 min, 600 µM turned out to be 67.5%; the remaining at 0.25 h, 600 µM came to 49.2%; the remaining at 1 h, 600 µM came to 0%. Further, the IC50 at RbAp48 [1] stood at 2620 ± 786 nM.

For `CC(=O)N[C@H]1CSCc2ccc(cc2)CSC[C@@H](C(=O)N[C@@H](C)C(N)=O)NC(=O)[C@@H]2CCCN2C(=O)[C@H](CCCCN)NC(=O)[C@H](Cc2ccc(O)cc2)NC(=O)[C@@H]2CCCN2C(=O)[C@H](CCCNC(=N)N)NC(=O)[C@H](CCCNC(=N)N)NC(=O)[C@H](C)NC(=O)[C@H](C)NC(=O)[C@H](CCCNC(=N)N)NC(=O)[C@H](CCCCN)NC(=O)[C@H]([C@@H](C)O)NC1=O` [Peptide 8] (Ac-CTKRAARRPYKPCA-NH2; linker 1-13 via pXylylene), in data set [3], the half-life at 600 µM was 11.9 min; the remaining at 5 min, 600 µM was 67.8%; the remaining at 0.25 h, 600 µM came out at 41%; the remaining at 1 h, 600 µM was 0%. Moreover, the IC50 at RbAp48 [1] was 15.1 ± 5.4 nM. Also, the “K D” value at RbAp48 [2] (setting [4]) was “did not yield a binding curve”. Also, the “K D [nM]” value at RbAp48 [2] (competitive ITC: 300 μM peptide titrated into 30 μM RbAp48 and 416 μM peptide 40, 20 mM Tris, 150 mM NaCl, pH 7.5, 25°C, duplicate except 8) is on record as “N.B”.

Regarding `CC(=O)N[C@H]1CSCc2cc3cc(c2)CSC[C@@H](C(=O)N[C@@H](C)C(N)=O)NC(=O)[C@@H]2CCCN2C(=O)[C@H](CCCCN)NC(=O)[C@H](Cc2ccc(O)cc2)NC(=O)[C@@H]2CCCN2C(=O)[C@H](CCCNC(=N)N)NC(=O)[C@H](C)NC(=O)[C@H](C)NC(=O)[C@H](CSC3)NC(=O)[C@H](CCCNC(=N)N)NC(=O)[C@H](CCCCN)NC(=O)[C@H]([C@@H](C)O)NC1=O` [Peptide 40] (Ac-CTKRCAARPYKPCA-NH2; linker 1-5-13 via TBMB), the IC50 at RbAp48 [1] is 4320 ± 974 nM. Also, the “FP activity in words” value at RbAp48 [1] (competitive FP assay) is recorded as “decreased several orders of magnitude”. Besides, binding at RbAp48 [2] (weak binding ligand, direct ITC) was characterised by a dissociation constant (Kd) of 15800 nM.

On to `NS(=O)(=O)OC[C@@H]1C[C@@H](n2ccc3c(N[C@H]4CCc5ccccc54)ncnc32)C[C@@H]1O` [Pevonedistat], for which the “Biosimilarity (%)” value in the data set on U2OS cells turned out to be 63.6%.

On to `CCN(CC)CCNC(=O)c1c(C)[nH]c(/C=C2\C(=O)Nc3ccc(F)cc32)c1C` [Sunitinib], for which the “Biosimilarity (%)” value with U2OS cells came to 63.5%.

Take PFI-5: the “Biosimilarity (%)” value in the data set with U2OS cells stood at 65.1%.
